{
  "source": "DBAASP",
  "assay_in_all_cases": "≥ marks a high value that may be exact or a test limit, other limits are often not marked, values filed in µg/mL are converted to µM",
  "key": {"[1]": {"test_system": "Pseudomonas aeruginosa 5167"}, "[2]": {"test_system": "Pseudomonas aeruginosa 1570"}, "[3]": {"test_system": "Candida parapsilosis CBS 604"}, "[4]": {"test_system": "Candida albicans ATCC 10231"}, "[5]": {"test_system": "Candida krusei CBS 573"}, "[6]": {"test_system": "Saccharomyces cerevisiae SZMC 0644"}, "[7]": {"test_system": "Pseudomonas aeruginosa 4007"}, "[8]": {"test_system": "Pseudomonas aeruginosa 3543"}, "[9]": {"test_system": "Proteus vulgaris KCTC 2433"}, "[10]": {"test_system": "Listeria monocytogenes ATCC 3710"}, "[11]": {"test_system": "Pseudomonas aeruginosa ATCC 15692"}, "[12]": {"test_system": "Bacillus subtilis KCTC 1998"}, "[13]": {"test_system": "Staphylococcus aureus 3518"}, "[14]": {"test_system": "Staphylococcus aureus ATCC 29213"}, "[15]": {"test_system": "Escherichia coli ATCC 25922"}, "[16]": {"test_system": "Escherichia coli CCARM 1238"}, "[17]": {"test_system": "Staphylococcus epidermidis ATCC 12228"}, "[18]": {"test_system": "Rhizopus stolonifer CECT 2344"}, "[19]": {"test_system": "Pseudomonas syringae EPS 94"}, "[20]": {"test_system": "Escherichia coli DH5alpha"}, "[21]": {"test_system": "Erwinia amylovora PMV 6076"}, "[22]": {"test_system": "Penicillium expansum EPS 26"}, "[23]": {"test_system": "Xanthomonas vesicatoria 2133-2"}, "[24]": {"test_system": "Penicillium digitatum PHI-26"}, "[25]": {"test_system": "Fusarium oxysporum f. sp. lycopersici ATCC 201829"}, "[26]": {"test_system": "Saccharomyces cerevisiae FY1679"}, "[27]": {"test_system": "Aspergillus niger CECT 2694"}, "[28]": {"test_system": "Candida albicans ATCC 64550"}, "[29]": {"test_system": "Pseudomonas fluorescens"}, "[30]": {"test_system": "Micrococcus luteus AB2010179"}, "[31]": {"test_system": "Klebsiella oxytoca AB2010143"}, "[32]": {"test_system": "Salmonella enterica AB2010185"}, "[33]": {"test_system": "Bacillus magaterium AB90008"}, "[34]": {"test_system": "Staphylococcus aureus AB94004"}, "[35]": {"test_system": "Pseudomonas putida"}, "[36]": {"test_system": "Enterobacter cloacae AB2010162"}, "[37]": {"test_system": "Staphylococcus aureus LAC"}, "[38]": {"test_system": "Candida albicans ATCC 90028"}, "[39]": {"test_system": "Cryptococcus neoformans ATCC 28957"}, "[40]": {"test_system": "Pseudomonas aeruginosa ATCC 27853"}, "[41]": {"test_system": "Staphylococcus aureus ATCC 25923"}, "[42]": {"test_system": "Pseudomonas syringae pv. tabaci"}, "[43]": {"test_system": "Bacillus cereus ATCC 14579"}, "[44]": {"test_system": "Pectobacterium carotovorum"}, "[45]": {"test_system": "Trichoderma asperellum"}, "[46]": {"test_system": "Xanthomonas campestris pv. citri"}, "[47]": {"test_system": "Fusarium oxysporum"}, "[48]": {"test_system": "Bacillus subtilis ATCC 23857"}, "[49]": {"test_system": "Ramulariopsis gossypii"}, "[50]": {"test_system": "Fusarium solani"}, "[51]": {"test_system": "Fusarium oxysporum f.sp. vasinfectum"}},
  "note": "“And” between values parts separate entries of the source, which are not always exact repeats. Equal values may be shown once.",
  "data": [
    {"smiles": "CC(C)C[C@H](NC(=O)[C@H](CC(C)C)NC(=O)[C@H](CCCCN)NC(=O)[C@H](CCCCN)NC(=O)[C@H](CC(C)C)NC(=O)[C@H](CC(C)C)NC(=O)[C@H](C)NC(=O)[C@H](CC(C)C)NC(=O)[C@@H](N)Cc1ccccc1)C(N)=O", "note": "[FLALLKKLL]", "values": [
      {"measurement": "MIC", "setting": "[1]", "value": "≥ 42.8", "unit": "µM"},
      {"measurement": "MIC", "setting": "[2]", "value": 10.7, "unit": "µM"}
    ]},
    {"smiles": "CC[C@H](C)[C@H](N)C(=O)N[C@@H](C)C(=O)N[C@H](C(=O)N[C@@H](CO)C(=O)N1CCC[C@H]1C(=O)N[C@@H](Cc1ccc(O)cc1)C(=O)N[C@@H](Cc1ccc(O)cc1)C(=O)N[C@@H](C)C(=O)N[C@H]1CSSC[C@@H](C(=O)O)NC(=O)CNC(=O)[C@H](CO)NC(=O)CNC(=O)[C@H](CCCCN)NC(=O)[C@H](CCCCN)NC(=O)[C@H](Cc2cnc[nH]2)NC(=O)[C@H](CCCCN)NC(=O)[C@@H]2CSSC[C@H](NC(=O)[C@H](CC(N)=O)NC1=O)C(=O)N1CCC[C@H]1C(=O)N[C@@H](CC(N)=O)C(=O)N[C@@H](CC(N)=O)C(=O)N2)[C@@H](C)O", "note": "[IATSPYYACNCPNNCKHKKGSGC]", "values": [
      {"measurement": "MIC", "setting": "[3]", "value": 20.3, "unit": "µM"},
      {"measurement": "MIC", "setting": "[4]", "value": 20.3, "unit": "µM"},
      {"measurement": "MIC", "setting": "[5]", "value": 20.3, "unit": "µM"},
      {"measurement": "MIC", "setting": "[6]", "value": 20.3, "unit": "µM"}
    ]},
    {"smiles": "CC[C@H](C)[C@H](NC(=O)[C@H](Cc1ccccc1)NC(=O)[C@H](CCCN=C(N)N)NC(=O)[C@H](CC(C)C)NC(=O)[C@@H](N)Cc1ccccc1)C(=O)NCC(=O)N[C@@H](CO)C(=O)N[C@H](C(=O)N[C@@H](CCCCN)C(=O)N[C@@H](Cc1cnc[nH]1)C(=O)NCC(=O)N[C@@H](CCCCN)C(=O)NCC(=O)N[C@@H](Cc1cnc[nH]1)C(=O)N[C@@H](CC(C)C)C(=O)N[C@H](C(=O)N[C@@H](Cc1cnc[nH]1)C(=O)N[C@@H](Cc1cnc[nH]1)C(=O)N[C@H](C(=O)NCC(=O)N[C@H](C(=O)N[C@@H](C)C(=O)N[C@@H](CC(C)C)C(N)=O)C(C)C)[C@@H](C)CC)C(C)C)C(C)C", "note": "[FLRFIGSVKHGKGHLVHHIGVAL]", "values": [
      {"measurement": "MIC", "setting": "[7]", "value": 2, "unit": "µM"},
      {"measurement": "MIC", "setting": "[8]", "value": 4, "unit": "µM"},
      {"measurement": "MIC", "setting": "[9]", "value": "4 µM and 8 µM"},
      {"measurement": "MIC", "setting": "[10]", "value": 4, "unit": "µM"},
      {"measurement": "MIC", "setting": "[11]", "value": "≥ 32", "unit": "µM"},
      {"measurement": "MIC", "setting": "[12]", "value": 4, "unit": "µM"},
      {"measurement": "MIC", "setting": "[13]", "value": 8, "unit": "µM"},
      {"measurement": "MIC", "setting": "[14]", "value": 8, "unit": "µM"},
      {"measurement": "MIC", "setting": "[15]", "value": "2 µM and 4 µM"},
      {"measurement": "MIC", "setting": "[16]", "value": 2, "unit": "µM"},
      {"measurement": "MIC", "setting": "[17]", "value": "4 µM and 8 µM"}
    ]},
    {"smiles": "CC[C@H](C)[C@H](NC(=O)[C@H](CCCCN)NC(=O)[C@H](CCCCN)NC(=O)[C@H](Cc1ccccc1)NC(=O)[C@H](CC(C)C)NC(=O)[C@H](CCCCN)NC(=O)[C@@H](N)CCCCN)C(=O)N[C@@H](CC(C)C)C(=O)N[C@@H](CCCCN)C(=O)N[C@@H](Cc1ccccc1)C(=O)N[C@@H](CC(C)C)C(N)=O", "note": "[KKLFKKILKFL]", "values": [
      {"measurement": "MIC", "setting": "[18]", "value": "≥ 35.4", "unit": "µM"},
      {"measurement": "MIC", "setting": "[19]", "value": 3.16, "unit": "µM"},
      {"measurement": "MIC", "setting": "[20]", "value": 4, "unit": "µM"},
      {"measurement": "MIC", "setting": "[21]", "value": 3.16, "unit": "µM"},
      {"measurement": "MIC", "setting": "[22]", "value": "≥ 35.4", "unit": "µM"},
      {"measurement": "MIC", "setting": "[23]", "value": 3.16, "unit": "µM"},
      {"measurement": "MIC", "setting": "[24]", "value": 4, "unit": "µM"},
      {"measurement": "MIC", "setting": "[25]", "value": 0.849, "unit": "µM"},
      {"measurement": "MIC", "setting": "[26]", "value": 16, "unit": "µM"},
      {"measurement": "MIC", "setting": "[27]", "value": 22.4, "unit": "µM"},
      {"measurement": "MIC", "setting": "[28]", "value": 25, "unit": "µM"}
    ]},
    {"smiles": "CC[C@H](C)[C@H](NC(=O)[C@H](CC(C)C)NC(=O)[C@H](CCCCN)NC(=O)[C@H](CC(C)C)NC(=O)[C@H](C)NC(=O)CNC(=O)[C@H](CCCCN)NC(=O)[C@H](C)NC(=O)[C@H](CC(C)C)NC(=O)[C@H](C)NC(=O)CNC(=O)[C@H](Cc1c[nH]c2ccccc12)NC(=O)[C@@H](N)Cc1ccccc1)C(=O)N1CCC[C@H]1C(=O)N[C@@H](CO)C(=O)N[C@@H](CC(C)C)C(=O)N[C@H](C(=O)N[C@@H](CO)C(=O)N[C@@H](CO)C(=O)N[C@@H](Cc1ccccc1)C(=O)N[C@H](C(N)=O)[C@@H](C)O)C(C)C", "note": "[FWGALAKGALKLIPSLVSSFT]", "values": [
      {"measurement": "MIC", "setting": "[29]", "value": "≥ 50.5", "unit": "µM"},
      {"measurement": "MIC", "setting": "[30]", "value": 1.5, "unit": "µM"},
      {"measurement": "MIC", "setting": "[31]", "value": "≥ 45", "unit": "µM"},
      {"measurement": "MIC", "setting": "[20]", "value": "≥ 40", "unit": "µM"},
      {"measurement": "MIC", "setting": "[32]", "value": "≥ 40", "unit": "µM"},
      {"measurement": "MIC", "setting": "[33]", "value": 1.5, "unit": "µM"},
      {"measurement": "MIC", "setting": "[34]", "value": 6.9, "unit": "µM"},
      {"measurement": "MIC", "setting": "[35]", "value": "≥ 35", "unit": "µM"},
      {"measurement": "MIC", "setting": "[36]", "value": "≥ 45", "unit": "µM"}
    ]},
    {"smiles": "CC(C)C[C@H](NC(=O)[C@H](CC(C)C)NC(=O)[C@H](CC(C)C)NC(=O)[C@@H](N)CC(C)C)C(=O)N[C@@H](CCCN=C(N)N)C(=O)N[C@@H](CCCN=C(N)N)C(=O)N[C@@H](CCCN=C(N)N)C(=O)N[C@@H](CCCN=C(N)N)C(=O)O", "note": "[LLLLRRRR]", "values": [
      {"measurement": "MIC", "setting": "[37]", "value": "≥ 117", "unit": "µM"},
      {"measurement": "MIC", "setting": "[15]", "value": "> 117", "unit": "µM"}
    ]},
    {"smiles": "CSCC[C@H](NC(=O)[C@H](Cc1ccccc1)NC(=O)CNC(=O)[C@H](Cc1cnc[nH]1)NC(=O)[C@H](CC(C)C)NC(=O)[C@H](CO)NC(=O)CN)C(=O)N[C@@H](Cc1ccc(O)cc1)C(=O)N[C@@H](CCCCN)C(=O)N[C@@H](Cc1ccc(O)cc1)C(=O)N[C@@H](CC(C)C)C(=O)N[C@@H](CCCCN)C(=O)N[C@@H](CC(N)=O)C(=O)N[C@@H](CCSC)C(=O)N[C@H](C(=O)N[C@@H](CC(C)C)C(=O)N[C@@H](CC(N)=O)C(=O)N[C@@H](CC(C)C)C(=O)N[C@@H](Cc1ccccc1)C(N)=O)C(C)C", "note": "[GSLHGFMYKYLKNMVLNLF]", "values": [
      {"measurement": "MIC", "setting": "[38]", "value": 4, "unit": "µM"},
      {"measurement": "MIC", "setting": "[39]", "value": 10.7, "unit": "µM"},
      {"measurement": "MIC", "setting": "[40]", "value": 26.7, "unit": "µM"},
      {"measurement": "MIC", "setting": "[41]", "value": 13.3, "unit": "µM"},
      {"measurement": "MIC", "setting": "[42]", "value": 16, "unit": "µM"},
      {"measurement": "MIC", "setting": "[43]", "value": "≥ 64", "unit": "µM"},
      {"measurement": "MIC", "setting": "[44]", "value": "≥ 128", "unit": "µM"},
      {"measurement": "MIC", "setting": "[45]", "value": 6.67, "unit": "µM"},
      {"measurement": "MIC", "setting": "[46]", "value": "≥ 64", "unit": "µM"},
      {"measurement": "MIC", "setting": "[47]", "value": 16, "unit": "µM"},
      {"measurement": "MIC", "setting": "[48]", "value": 16, "unit": "µM"},
      {"measurement": "MIC", "setting": "[49]", "value": 4, "unit": "µM"},
      {"measurement": "MIC", "setting": "[50]", "value": "≥ 32", "unit": "µM"},
      {"measurement": "MIC", "setting": "[15]", "value": 32, "unit": "µM"},
      {"measurement": "MIC", "setting": "[51]", "value": 16, "unit": "µM"}
    ]}
  ]
}
